Data taken from patent publication US20130253012A1, “Pyrazole Compounds for Controlling Invertebrate Pests” (BASF SE, priority 2010, published 2013).

What was measured:
Assay type in all cases: in vivo
[1] = test system: Green Peach Aphid (Myzus persicae, Mixed Life Stages); assay: Green peach aphid, method a) (leaf dip, pepper plants); conditions: 300 ppm; pepper plant leaves dipped; after 5 days
Experimental: (§1) II.2 Green Peach Aphid (Myzus persicae, Mixed Life Stages)
(§2) The active compounds were formulated in 50:50 (v/v) acetone:water and 100 ppm nonionic surfactant (Kinetic®).
Pepper plants in the 2nd leaf-pair stage (variety ‘California Wonder’) were infested with approximately 40 laboratory-reared aphids by placing infested leaf sections on top of the test plants. The leaf sections were removed after 24 hours. The leaves of the intact plants were dipped into gradient solutions of the test compound and allowed to dry. Test plants were maintained under fluorescent light (24 hour photoperiod) at about 25° C. and 20-40% relative humidity. Aphid mortality on the treated plants, relative to mortality on check plants, was determined after 5 days.

[2] = test system: Cotton Aphid (Aphis gossypii, Mixed Life Stages); assay: Cotton aphid, method a) (cotyledon dip); conditions: 300 ppm; cotton cotyledons dipped; counts after 5 days
Description: (§3) II.1 Cotton Aphid (Aphis gossypii, Mixed Life Stages)
as §2
Cotton plants at the cotyledon stage (one plant per pot) were infested by placing a heavily infested leaf from the main colony on top of each cotyledon. The aphids were allowed to transfer to the host plant overnight, and the leaf used to transfer the aphids was removed. The cotyledons were dipped in the test solution and allowed to dry. After 5 days, mortality counts were made.

[3] = test system: Cowpea Aphid (Aphis craccivora); assay: Cowpea aphid, sprayed potted cowpea plants; conditions: assessed after 24, 72 and 120 hours, read-out: mortality in comparison with untreated controls
Experimental: II.3 Cowpea Aphid (Aphis craccivora)
The active compounds were formulated in 50:50 (v/v) acetone:water. The test solution was prepared at the day of use.
Potted cowpea plants colonized with 100-150 aphids of various stages were sprayed after the pest population had been recorded. Population reduction was assessed after 24, 72, and 120 hours.

[4] = test system: Vetch Aphid (Megoura viciae); assay: Vetch aphid, bean leaf disks in microtiterplates; conditions: foliar, 144 h, test solution 2500 mg/L, bean leaf disks sprayed with 2.5 μl, 6 days
Experimental: II.4 Vetch Aphid (Megoura viciae)
The active compounds were formulated in 1:3 (v/v) DMSO:water with different concentrations of formulated compounds.
Bean leaf disks were placed into microtiterplates filled with 0.8% agar-agar and 2.5 ppm OPUS™. The leaf disks were sprayed with 2.5 μl of the test solution and 5 to 8 adult aphids were placed into the microtiterplates which were then closed and kept at 23±1° C. and 50±5% relative humidity under fluorescent light for 6 days. Mortality was assessed on the basis of vital, reproduced aphids. Aphid mortality and fecundity was then visually assessed.

[5] = test system: Green Peach Aphid (Myzus persicae, Mixed Life Stages); assay: Green peach aphid, method b) (electrostatic spray, bell pepper plants); conditions: 120 h, infested bell pepper plants sprayed, after 5 days, read-out: mortality in comparison with untreated controls
Experimental: as §1
(§4) The active compounds were formulated in cyclohexanone as a 10,0000 ppm solution supplied in 1.3 ml ABgene® tubes. These tubes were inserted into an automated electrostatic sprayer equipped with an atomizing nozzle and they served as stock solutions for which lower dilutions were made in 50% acetone:50% water (v/v). A nonionic surfactant (Kinetic®) was included in the solution at a volume of 0.01% (v/v).
Bell pepper plants at the first true-leaf stage were infested prior to treatment by placing heavily infested leaves from the main colony on top of the treatment plants. Aphids were allowed to transfer overnight to accomplish an infestation of 30-50 aphids per plant and the host leaves were removed. The infested plants were then sprayed by an automated electrostatic plant sprayer equipped with an atomizing spray nozzle. The plants were dried in the sprayer fume hood, removed, and then maintained in a growth room under fluorescent lighting in a 24 hour photoperiod at 25° C. and 20-40% relative humidity. Aphid mortality on the treated plants, relative to mortality on untreated control plants, was determined after 5 days.

[6] = test system: Cotton Aphid (Aphis gossypii, Mixed Life Stages); assay: Cotton aphid, method b) (electrostatic spray); conditions: 120 h, infested cotton plants sprayed, after 5 days, read-out: mortality in comparison with untreated controls
Experimental: as §3, §4
Cotton plants at the cotyledon stage were infested with aphids prior to treatment by placing a heavily infested leaf from the main aphid colony on top of each cotyledon. Aphids were allowed to transfer overnight to accomplish an infestation of 80-100 aphids per plant and the host leaf was removed. The infested plants were then sprayed by an automated electrostatic plant sprayer equipped with an atomizing spray nozzle. The plants were dried in the sprayer fume hood, removed from the sprayer, and then maintained in a growth room under fluorescent lighting in a 24 hour photoperiod at 25° C. and 20-40% relative humidity. Aphid mortality on the treated plants, relative to mortality on untreated control plants, was determined after 5 days.

[7] = test system: Boll Weevil (Anthonomus grandis); assay: Boll weevil, insect diet with eggs in 24-well microtiter plates; conditions: 120 h, test solution 2500 mg/L, 20 μl sprayed onto insect diet, 5 days, read-out: mortality (egg and larval)
Experimental: II.5 Boll Weevil (Anthonomus grandis)
The compounds were formulated in 75:25 (v/v) water:DMSO.
For evaluating control of boll weevil (Anthonomus grandis) the test unit consisted of 24-well-microtiter plates containing an insect diet and 20-30 A. grandis eggs. Different concentrations of formulated compounds were sprayed onto the insect diet at 20 μl, using a custom built micro atomizer, at two replications. After application, the microtiter plates were incubated at 23±1° C. and 50±5% relative humidity for 5 days. Egg and larval mortality was then visually assessed.

[8] = test system: Green Peach Aphid (Myzus persicae); assay: Green peach aphid through systemic means, artificial diet under membrane; conditions: 72 h, pipetted into aphid diet, 3 days, read-out: mortality in comparison with untreated controls
Description: II.6 Activity Against Green Peach Aphid (Myzus persicae)
For evaluating control of green peach aphid (Myzus persicae) through systemic means the test unit consisted of 96-well-microtiter plates containing liquid artificial diet under an artificial membrane.
The compounds were formulated using a solution containing 75% v/v water and 25% v/v DMSO. Different concentrations of formulated compounds were pipetted into the aphid diet, using a custom built pipetter, at two replications. After application, 5 to 8 adult aphids were placed on the artificial membrane inside the microtiter plate wells. The aphids were then allowed to suck on the treated aphid diet and incubated at about 23+1° C. and about 50+5% relative humidity for 3 days. Aphid mortality and fecundity was then visually assessed.

[9] = test system: Green Peach Aphids (Myzus persicae); assay: Hydroponic test against green peach aphids (bare root pepper plants); conditions: bare roots immersed 24 hours, assay 3 days, read-out: mortality in comparison with untreated controls
Experimental: II.9 Activity in the Hydroponic Tests Against Green Peach Aphids (Myzus persicae)
(§5) Green pepper plants (Capsicum annuum L., variety ‘California Wonder’) were grown in the greenhouse from seed to the second true leaf stage (BBCH 12) in Scott's Metro-Mix® 360 (1 to 2 plants per 2¼″ square pot). Cotyledon leaves were removed and roots were rinsed in tap water until free of soil. The roots were kept moist under a layer of wet paper toweling until all plants had been prepared.
(§6) A 3,400 ppm stock solution was prepared of each test compound using reagent grade acetone as the solvent. Subsequent dilutions of 100 and 10 ppm were prepared from this stock with final dilutions in deionized water in 100 ml amber glass bottles. One bare root plant was placed in each bottle using a foam plug section to centrally secure the stem in the bottleneck. The bare roots were fully-immersed in the test suspensions. Host plants were placed in a plant growth room under continuous GroLux® fluorescent lighting (40 Watt), for 24 hours at 25±2° C. and 20-40% relative humidity.
After exposure of the bare roots to the test suspensions, pieces of pepper plants infested with green peach aphid (Myzus persicae) were placed on top of the test foliage. Insects were allowed to transfer from the host leaves to accomplish an infestation of 40-50 insects per plant. The assay was allowed to run for 3 days in the same growth room as used previously. Assessments included estimates of aphid population density reduction relative to the average density of aphids on the untreated control plants. Phytotoxic responses of the host plants were also recorded at this time.

[10] = test system: Cotton Aphids (Aphis gossypii); assay: Hydroponic test against cotton aphids (bare root cotton plants); conditions: bare roots immersed 24 hours, assay 3 days, read-out: mortality in comparison with untreated controls
Experimental: II.10 Activity in the Hydroponic Tests Against Cotton Aphids (Aphis gossypii)
as §5, with “Cotton” for “Green pepper”, “(Gossypium hirsutum,” for “(Capsicum annuum L.,”, “‘Sure Grow 747’)” for “‘California Wonder’)”
as §6
After exposure of the bare roots to the test suspensions, pieces of cotton plants infested with cotton aphids (Aphis gossypi) were placed on top of the test foliage. Insects were allowed to transfer from the host leaves to accomplish an infestation of 40-50 insects per plant. […] Phytotoxic responses of the host plants were also recorded at this time.

[11] = test system: Silverleaf Whitefly (Bemisia argentifolii, Adult); assay: Silverleaf whitefly, sprayed cotton plants; conditions: 72 h, 3 days after treatment, read-out: mortality in comparison with untreated controls
Experimental: II.7 Silverleaf Whitefly (Bemisia argentifolii, Adult)
as §4
Cotton plants at the cotyledon stage (one plant per pot) were sprayed by an automated electrostatic plant sprayer equipped with an atomizing spray nozzle. The plants were dried in the sprayer fume hood and then removed from the sprayer. Each pot was placed into a plastic cup and 10 to 12 whitefly adults (approximately 3-5 days old) were introduced. The insects were collected using an aspirator and 0.6 cm, nontoxic Tygon® tubing (R-3603) connected to a barrier pipette tip. The tip, containing the collected insects, was then gently inserted into the soil containing the treated plant, allowing insects to crawl out of the tip to reach the foliage for feeding. Cups were covered with a reusable screened lid (150-micron mesh polyester screen PeCap from Tetko, Inc.). […] Mortality was assessed 3 days after treatment, compared to untreated control plants.

| Structure (SMILES) | mortality at 500 ppm [3] | mortality at 2500 µg/mL [4] | mortality at 300 ppm [5] | mortality at 300 ppm [6] | mortality at 2500 µg/mL [7] | mortality at 2500 ppm [8] | mortality at 100 ppm [9] | also measured |
| --- | --- | --- | --- | --- | --- | --- | --- | --- |
| Cn1cc(-c2nncn2-c2cccnc2)c(C(F)(F)F)n1 [Example 1] |  |  |  |  |  |  |  | mortality in comparison with untreated controls [1]: at least 90%; mortality in comparison with untreated controls [2]: at least 75% |
| Cc1c(-c2nncn2-c2cccnc2)cnn1CC(F)(F)F [Example 2, 3-{3-[5-Methyl-1-(2,2,2-trifluoroethyl)-1H-pyrazol-4-yl]-[1,2,4]triazol-4-yl}pyridine] | ≥ 75% |  |  |  |  |  |  |  |
| Cc1c(-c2nc(-c3cccnc3)co2)cnn1CC(F)(F)F [Example 4, 3-{2-[5-Methyl-1-(2,2,2-trifluoroethyl)-1H-pyrazol-4-yl]-oxazol-4-yl}pyridine] |  | ≥ 90% |  |  |  |  |  |  |
| Cc1c(-c2nnc(-c3cccnc3)o2)cnn1CC(F)(F)F [Example 14, 3-{5-[5-Methyl-1-(2,2,2-trifluoroethyl)-1H-pyrazol-4-yl]-[1,3,4]oxadiazol-2-yl}pyridine] | ≥ 75% |  | ≥ 75% | ≥ 75% | ≥ 50% |  |  |  |
| Cc1c(-c2nnc(-c3cccnc3)s2)cnn1CC(F)(F)F [Example 15, 3-{5-[5-Methyl-1-(2,2,2-trifluoroethyl)-1H-pyrazol-4-yl]-[1,3,4]thiadiazol-2-yl}pyridine] | ≥ 75% | ≥ 90% | ≥ 75% | ≥ 75% | ≥ 50% | 100% | ≥ 75% |  |
| Cc1c(C2=NCCN2c2cccnc2)cnn1CC(F)(F)F [Example 18, 3-{2-[5-Methyl-1-(2,2,2-trifluoroethyl)-1H-pyrazol-4-yl]-4,5-dihydroimidazol-1-yl}pyridine] | ≥ 75% |  | ≥ 75% | ≥ 75% |  | 100% | ≥ 75% | mortality at 100 ppm [10]: ≥ 75% |
| Cc1c(-c2nccn2-c2cccnc2)cnn1CC(F)(F)F [Example 20, 3-{2-[5-Methyl-1-(2,2,2-trifluoroethyl)-1H-pyrazol-4-yl]imidazol-1-yl}pyridine] | ≥ 75% | ≥ 90% | ≥ 75% | ≥ 75% |  | 100% | ≥ 75% | mortality at 100 ppm [10]: ≥ 75%; mortality at 500 ppm [11]: ≥ 75% |
| Cc1c(-c2nc(-c3cccnc3)nn2C)cnn1CC(F)(F)F [Example 38, 3-{1-methyl-5-[5-methyl-1-(2,2,2-trifluoroethyl)-1H-pyrazol-4-yl]-1H-[1,2,4]triazol-3-yl}pyridine] |  |  |  |  | ≥ 50% |  |  |  |
| Cc1c(-c2noc(=O)n2-c2cccnc2)cnn1CC(F)(F)F [Example 39, 3-{3-[5-Methyl-1-(2,2,2-trifluoroethyl)-1H-pyrazol-4-yl]-4H-[1,2,4]oxadiazol-5-on-4-yl}pyridine] | ≥ 75% | ≥ 90% |  |  |  | 100% |  |  |
